{"source": "patent US20110281794A1", "about": "“C[…]-[…] A[…] ADM[…] A BRAIN-DEAD, HEART-BEATING POTENTIAL ORGAN DONOR” (VIVOLINE MEDICAL AB, priority 2008, published 2011)", "key": {"[1]": {"conditions": "cited from earlier work"}, "[2]": {"test_system": "brain-dead, heart-beating cadaver of a pig", "experiment": "Blood pressure and organ maintenance in brain-dead, heart-beating pig under intravenous infusion", "format": "in vivo", "description": "The following ingredients: 1 mg (1 ml) adrenaline, 1 mg (1 ml) nor-adrenaline, 0.3 mg (3 ml) T3, 300 mg (3 ml) cortisone, […] (9 ml) Minirin and 1 mg (3 ml) cocaine were dissolved in 50 ml physiological sodium chloride solution.\nFor reducing the risk of diabetes insipidus, a bolus of […] Minirin was given at the start of the treatment.\nThe inventor has performed more than 20 experiments with pigs and using cocaine in combination with adrenaline and nor-adrenaline.\nFIG. 4 is a diagram over blood pressure during an experiment similar to Experiment 1."}, "[3]": {"biological_target": "NET (nor-epinephrine transporter) (Homo sapiens, UniProt P23975)", "sequence (P23975 whole entry, species assumed)": "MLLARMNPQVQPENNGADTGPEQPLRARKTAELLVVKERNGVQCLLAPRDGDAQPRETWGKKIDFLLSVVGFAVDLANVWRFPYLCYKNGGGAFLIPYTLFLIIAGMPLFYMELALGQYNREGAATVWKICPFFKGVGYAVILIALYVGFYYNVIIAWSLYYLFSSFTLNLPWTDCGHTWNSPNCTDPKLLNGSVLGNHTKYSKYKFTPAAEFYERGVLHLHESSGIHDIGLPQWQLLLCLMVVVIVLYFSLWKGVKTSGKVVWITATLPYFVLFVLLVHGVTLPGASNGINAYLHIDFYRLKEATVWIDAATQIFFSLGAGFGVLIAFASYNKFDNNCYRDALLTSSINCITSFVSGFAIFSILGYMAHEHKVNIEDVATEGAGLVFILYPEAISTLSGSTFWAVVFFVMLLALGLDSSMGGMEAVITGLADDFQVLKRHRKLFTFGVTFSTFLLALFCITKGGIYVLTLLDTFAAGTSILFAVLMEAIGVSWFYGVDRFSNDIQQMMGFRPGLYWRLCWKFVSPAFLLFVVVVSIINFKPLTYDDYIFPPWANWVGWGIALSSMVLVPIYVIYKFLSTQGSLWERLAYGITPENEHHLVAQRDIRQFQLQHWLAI", "conditions": "cited from earlier work"}, "[4]": {"conditions": "in vivo; cited from earlier work"}, "[5]": {"test_system": "alfa-1", "experiment": "Potency as replacement of nor-adrenaline (alfa-1-agonist)", "description": "In some embodiments, the adrenaline and/or nor-adrenaline may be partly or entirely replaced by an equivalent substance. For example, phenylephrine is an alfa-1-agonist and may replace nor-adrenaline."}}, "data": [{"smiles": "CNCCCN1c2ccccc2CCc2ccccc21", "note": "[desipramine]", "values": [{"measurement": "half-life time", "setting": "[1]", "result": 30, "unit": "h"}, {"measurement": "mean pressure reached on infusion", "setting": "[2]; Experiment 2, infusion 1.7 to 3.2 ml/hour with adrenaline and nor-adrenaline, from a mean pressure of about 40 mmHg", "result": 80, "unit": "mmHg"}, {"measurement": "blood pressure after infusion rate was decreased", "setting": "[2]; Experiment 2, infusion rate decreased to 2.5 and 1.7 ml/hour, never decreased further", "result": "about 60 mmHg"}]}, {"smiles": "COC(=O)[C@H]1[C@@H](OC(=O)c2ccccc2)C[C@@H]2CC[C@H]1N2C", "note": "[cocaine, benzoylmethyl ecgonine]", "values": [{"measurement": "potentiation of the effect of blood circulating nor-adrenaline (vasoconstriction)", "setting": "[2]; added together with nor-adrenaline, compared with cocaine", "result": "much lower levels of nor-adrenaline"}, {"measurement": "blood pressure maintained at a constant level", "setting": "[2]; more than 20 experiments with pigs, in combination with adrenaline and nor-adrenaline, over 24 hours", "result": 70, "unit": "mmHg"}]}, {"smiles": "CNCCCN1c2ccccc2CCc2ccc(Cl)cc21", "note": "[Norclomipramine]", "values": [{"measurement": "potency among NET inhibitors", "setting": "[3]", "result": "highest"}]}, {"smiles": "CNCCCC1c2ccccc2C=Cc2ccccc21", "note": "[Protriptylin]", "values": [{"measurement": "potency among NET inhibitors", "setting": "[3]", "result": "highest"}]}, {"smiles": "CCN(CC)CC(=O)Nc1c(C)cccc1C", "note": "[Lidocaine]", "values": [{"measurement": "effect of infusion on blood pressure", "setting": "[4]", "result": "vasodilatation and a lowering of the blood pressure"}]}, {"smiles": "CNC[C@H](O)c1cccc(O)c1", "note": "[phenylephrine]", "values": [{"measurement": "potency relative to nor-adrenaline (times less potent)", "setting": "[5]", "result": "about 5 times"}]}, {"smiles": "CC(N)Cc1ccccc1", "note": "(stereo not drawn) [amphetamine, alpha-methylphenethylamine]", "values": [{"measurement": "increase of mean arterial pressure", "setting": "[2]; added at 29.5 hours to infusion solution of Experiment 1 without cocaine, constant until 36 hours", "result": "about 15 mmHg"}]}, {"smiles": "NC(=O)CC[C@@H]1NC(=O)[C@H](Cc2ccccc2)NC(=O)[C@H](Cc2ccc(O)cc2)NC(=O)[C@@H](N)CSSC[C@@H](C(=O)N2CCC[C@H]2C(=O)N[C@@H](CCCN=C(N)N)C(=O)NCC(N)=O)NC(=O)[C@H](CC(N)=O)NC1=O", "note": "[ADH]", "values": [{"measurement": "half-life-time", "setting": "[1]", "result": "about 15 minutes"}]}]}
